Assay results taken from patent US20110171221A1, “COMPOSITIONS AND METHODS FOR THE TREATMENT OF A NEOPLASIA” (University of Florida Research Foundation, priority 2008, published 2011).
“Also recorded” adds a separate entry of the source.

What was measured:
[1] = tested on: prostate cancer stem cells (CSC) and non-stem prostate cancer cells (Non-CSC); test: cell viability after Docetaxel; type: cell-based, human; details: 5 nM Docetaxel, Day 0, 1, 2 and 3 (up to 72 hours)
Method: FIG. 12B is a graph depicting the cell viability of prostate cancer stem cells (CSC) and non-stem prostate cancer cells (Non-CSC) observed for up to 72 hours after treatment with Docetaxel. Cell viability was determined by quantifying the surviving prostate cancer stem cells (CSC) and non-stem prostate cancer cells (Non-CSC) in the samples exposed to 5 nM Docetaxel at Day 0, 1, 2 and 3.
(§1) Prostate cancer stem cells from metastatic prostate cancer cell lines were examined for their sensitivity to conventional cancer treatments (e.g., radiation and chemotherapy). […] Metastatic prostate stem cell lines were also treated with Docetaxel, a frontline treatment for drug-resistant cancer cells.

[2] = tested on: Sox2, Oct 3/4 and Nanog expression in metastatic prostate stem cell lines; test: Western blot of stem cell markers after Docetaxel; type: cell-based, human; details: Docetaxel 1 nM, 2 nM, 5 nM, 10 nM
Method: as §1
For the experiments described above, Western-blot analysis was performed by standard methods on isolated cancer stem cells and non-cancer stem cells. Whole cell lysates were prepared in lysis buffer with a commercially available protease inhibitor cocktail (Pierce) at 4° C., followed by centrifugation at 13,000×g for 10 min. Extracts were separated by SDS/PAGE and transferred to nitrocellulose membranes. The membranes were blocked with 5% nonfat dry milk in 20 mM Tris-HCl (pH 7.5), 500 mM sodium chloride, and 0.05% Tween 20 for 2 h and then incubated with commercially available primary antibodies against OCT3/4, c-Myc, β-actin (Cell Signaling), SOX2, Klf4 (Santa Cruz), Nanog (BioLegend), or E-cadherin (BD Bioscience) in the same buffer with 1% BSA (fraction V). After washing, the blots were incubated with an HRP-conjugated secondary antibody and visualized with a commercially available chemiluminescence detection system (Amersham). β-actin-specific Abs were used to ensure equal protein loading.

**Q.** Which “cell viability of prostate cancer stem cells vs non-stem prostate cancer cells” value [1] does the source give for CC(=O)O[C@@]12CO[C@@H]1C[C@H](O)[C@@]1(C)C(=O)[C@H](O)C3=C(C)[C@@H](OC(=O)[C@H](O)[C@@H](NC(=O)OC(C)(C)C)c4ccccc4)C[C@@](O)([C@@H](OC(=O)c4ccccc4)[C@H]21)C3(C)C [Docetaxel] here?
**A.** The value was “more cell viability compared to non-stem prostate cancer cells; also recorded: resistant”.

**Q.** What about the “detection of Sox2, Oct 3/4 and Nanog expression” value [2] of the same molecule?
**A.** The value was “increased detection of Sox2, Oct 3/4 and Nanog expression with increasing dose”.
